# Test results reported in US4272437A, “Antibacterial agents, and 4-thio azetidinone intermediates” (priority 1979, dated 1981).
# Like-named read-outs stand apart in the source and are kept apart here.
# Key:
# [1] = tested on: Str. pneumoniae A-9585; assay: MIC, tube dilution, Streptococcus pneumoniae A9585; type: cell-based; settings: overnight 37° C., Nutrient Broth; for MIC: Streptococcus pneumoniae, A9585, Str. pneumoniae A9585, read-out: Minimum Inhibitory Concentration (M.I.C.)
# Text: (§1) Representative compounds of the present invention were subjected to in vitro antibiotic screening against a variety of microorganisms.
# [2] = tested on: Str. pyogenes A-9604; assay: MIC, tube dilution, Streptococcus pyogenes A9604; type: cell-based; settings: overnight 37° C., Nutrient Broth; for MIC: Streptococcus pyogenes, A9604, Str. pyogenes A9604, read-out: Minimum Inhibitory Concentration (M.I.C.)
# Text: as §1
# [3] = tested on: Staph. aureus A-9537; assay: MIC, tube dilution, Staphylococcus aureus A9537; type: cell-based; settings: overnight 37° C., Nutrient Broth; for MIC: Staphylococcus aureus, A9537, Staph. aureus A9537, read-out: Minimum Inhibitory Concentration (M.I.C.)
# Text: as §1
# [4] = tested on: Staph. aureus A-9537 and 50% serum; assay: MIC, tube dilution, Staph. aureus A9537 + 50% serum; type: cell-based, Staphylococcus aureus; settings: overnight 37° C.; for MIC: Staphylococcus aureus, read-out: Minimum Inhibitory Concentration (M.I.C.)
# Text: as §1
# [5] = tested on: Staph. aureus (Pen-Res) A-9606; assay: MIC, tube dilution, Staphylococcus aureus A9606 (Pen-Res); type: cell-based; settings: Staphylococcus aureus, Staph. aureus A9606 (Pen-Res); overnight 37° C.; read-out: Minimum Inhibitory Concentration (M.I.C.)
# Text: as §1
# [6] = tested on: Staph. aureus (Meth-Res) A-15097; assay: MIC, tube dilution, Staphylococcus aureus A15097 (Meth-Res); type: cell-based; settings: Staphylococcus aureus, Staph. aureus A15097 (Meth-Res); overnight 37° C.; read-out: Minimum Inhibitory Concentration (M.I.C.)
# Text: as §1
# [7] = tested on: Str. faecalis A-20688; assay: MIC, tube dilution, Streptococcus faecalis A20688; type: cell-based; settings: overnight 37° C.; for MIC: Enterococcus faecalis, A20688, Str. faecalis A20688, read-out: Minimum Inhibitory Concentration (M.I.C.)
# Text: as §1
# [8] = tested on: E. coli A-15119; assay: MIC, tube dilution, Escherichia coli A15119; type: cell-based; settings: Escherichia coli, A15119, E. coli A15119; overnight 37° C.; read-out: Minimum Inhibitory Concentration (M.I.C.)
# Text: as §1
# [9] = tested on: E. coli A-20341-1; assay: MIC, tube dilution, Escherichia coli A20341-1; type: cell-based; settings: Escherichia coli, A203411, E. coli A20341-1; overnight 37° C.; read-out: Minimum Inhibitory Concentration (M.I.C.)
# Text: as §1
# [10] = tested on: K. pneumoniae A-15130; assay: MIC, tube dilution, Klebsiella pneumoniae A15130; type: cell-based; settings: Klebsiella pneumoniae, A15130, K. pneumoniae A15130; overnight 37° C.; read-out: Minimum Inhibitory Concentration (M.I.C.)
# Text: as §1
# [11] = tested on: Klebsiella species A20468; assay: MIC, tube dilution, Klebsiella species A20468; type: cell-based; settings: Klebsiella species (K. pneumoniae) A20468; overnight 37° C.; read-out: Minimum Inhibitory Concentration (M.I.C.)
# Text: as §1
# [12] = tested on: Pr. mirabilis A-9900; assay: MIC, tube dilution, Proteus mirabilis A9900; type: cell-based; settings: overnight 37° C.; for MIC: Proteus mirabilis, A9900, Proteus mirabilis A9900, read-out: Minimum Inhibitory Concentration (M.I.C.)
# Text: as §1
# [13] = tested on: Pr. morganii A-15153; assay: MIC, tube dilution, Proteus morganii A15153; type: cell-based; settings: overnight 37° C.; for MIC: Morganella morganii, A15153, Proteus morganii A15153, read-out: Minimum Inhibitory Concentration (M.I.C.)
# Text: as §1
# [14] = tested on: Ser. marcescens A-20019; assay: MIC, tube dilution, Serratia marcescens A20019; type: cell-based; settings: overnight 37° C.; for MIC: Serratia marcescens, A20019, Serratia marcescens A20019, read-out: Minimum Inhibitory Concentration (M.I.C.)
# Text: as §1
# [15] = tested on: Ent. cloacae A-9659; assay: MIC, tube dilution, Enterobacter cloacae A9659; type: cell-based; settings: overnight 37° C.; for MIC: Enterobacter cloacae, A9659, Enterobacter cloacae A9659, read-out: Minimum Inhibitory Concentration (M.I.C.)
# Text: as §1
# [16] = tested on: Ent. cloacae A-9656; assay: MIC, tube dilution, Enterobacter cloacae A9656; type: cell-based; settings: overnight 37° C.; for MIC: Enterobacter cloacae, A9656, Enterobacter cloacae A9656, read-out: Minimum Inhibitory Concentration (M.I.C.)
# Text: as §1
# [17] = tested on: Ps. aeruginosa A-9843A; assay: MIC, tube dilution, Pseudomonas aeruginosa A9843A; type: cell-based; settings: Pseudomonas aeruginosa, A9843A, read-out: Minimum Inhibitory Concentration (M.I.C.), Pseudomonas aeruginosa A9843A; overnight 37° C.
# Text: as §1
# [18] = tested on: Ps. aeruginosa A-21213; assay: MIC, tube dilution, Pseudomonas aeruginosa A21213; type: cell-based; settings: Pseudomonas aeruginosa, A21213, Pseudomonas aeruginosa A21213; overnight 37° C.; read-out: Minimum Inhibitory Concentration (M.I.C.)
# Text: as §1
# [19] = tested on: Proteus rettgeri A21203; assay: MIC, tube dilution, Proteus rettgeri A21203; type: cell-based; settings: overnight 37° C.; for MIC: Providencia rettgeri, A21203, Proteus rettgeri A21203, read-out: Minimum Inhibitory Concentration (M.I.C.)
# Text: as §1
# [20] = tested on: Hemophilus influenzae A9833; assay: MIC, tube dilution, Hemophilus influenzae A9833; type: cell-based; settings: Haemophilus influenzae; Hemophilus influenzae A9833; overnight 37° C.; read-out: Minimum Inhibitory Concentration (M.I.C.)
# Text: as §1
# [21] = tested on: Proteus vulgaris A21559; assay: MIC, tube dilution, Proteus vulgaris A21559; type: cell-based; settings: overnight 37° C.; for MIC: Proteus vulgaris, A21559, Proteus vulgaris A21559, read-out: Minimum Inhibitory Concentration (M.I.C.)
# Text: as §1
# [22] = tested on: E. coli A15119; assay: In vivo protection of mice, lethal infection with E. coli A15119; settings: Escherichia coli, 2 treatments, read-out: PD50
# Description: (§2) Representative compounds of the present invention were also tested in vivo in mice and their PD50 (dose of compound in mg/kg required to protect 50% of the treated mice against an otherwise lethal infection of a micro-organism) values determined with respect to the test organisms shown below.
# [23] = tested on: S. aureus A9537; assay: In vivo protection of mice, lethal infection with S. aureus A9537; settings: 2 treatments; for ED50: Staphylococcus aureus, read-out: PD50
# Description: as §2
# [24] = tested on: β-lactamases; settings: literature; cited from earlier work
# [25] = Mouse blood levels after intramuscular administration; type: in vivo; settings: average of 6 mice, read-out: Mouse blood level
# Description: Mouse blood levels after intramuscular administration of representative compounds of the present invention were determined and are reported in the table below.
# [26] = tested on: Gram-negative and Gram-positive organisms; settings: literature; cited from earlier work
Structure (SMILES),MIC [1] [µg/mL],MIC [2] [µg/mL],MIC [3] [µg/mL],MIC [4] [µg/mL],MIC [5] [µg/mL],MIC [6] [µg/mL],MIC [7] [µg/mL],MIC [8] [µg/mL],MIC [9] [µg/mL],MIC [10] [µg/mL],MIC [11] [µg/mL],MIC [12] [µg/mL],MIC [13] [µg/mL],MIC [14] [µg/mL],MIC [15] [µg/mL],MIC [16] [µg/mL],MIC [17] [µg/mL],MIC [18] [µg/mL],MIC [19] [µg/mL],β-lactamase inhibition [24],further results
"CC(=O)NCCC1=C(C(=O)O)N2C(=O)CC2S1 (stereo not drawn) [Example 25, Sodium 2-(2'-Acetamido-1'-ethyl)penem-3-carboxylate]",0.25,0.25,0.5,8,1,125,63,4,63,16,> 125,4,4,4,4,8,16,> 125,8,–,MIC [20]: > 125 µg/mL
"NC1CCC(C2=C(C(=O)O)N3C(=O)C[C@H]3S2)C1 (single isomer, unassigned) [98 isomer A, 2-(3-Aminocyclopentyl)-penem-3-carboxylic acid]",–,–,–,–,32,> 63,–,1,16,4,> 63,–,–,–,–,–,> 63,> 63,–,–,"Minimum Inhibitory Concentration (M.I.C.) ([1]; Str. pneumoniae A9585): .004 µg/mL; Minimum Inhibitory Concentration (M.I.C.) ([2]; Str. pyogenes A9604): .004 µg/mL; Minimum Inhibitory Concentration (M.I.C.) ([3]; Staph. aureus A9537): .03 µg/mL; Minimum Inhibitory Concentration (M.I.C.) [4]: .13 µg/mL; Minimum Inhibitory Concentration (M.I.C.) ([7]; Str. faecalis A20688): 4 µg/mL; Minimum Inhibitory Concentration (M.I.C.) ([12]; Proteus mirabilis A9900): 1 µg/mL; Minimum Inhibitory Concentration (M.I.C.) ([13]; Proteus morganii A15153): 4 µg/mL; Minimum Inhibitory Concentration (M.I.C.) ([14]; Serratia marcescens A20019): 2 µg/mL; Minimum Inhibitory Concentration (M.I.C.) ([15]; Enterobacter cloacae A9659): 4 µg/mL; Minimum Inhibitory Concentration (M.I.C.) ([16]; Enterobacter cloacae A9656): 2 µg/mL; Minimum Inhibitory Concentration (M.I.C.) ([19]; Proteus rettgeri A21203): 1 µg/mL; Minimum Inhibitory Concentration (M.I.C.) ([21]; Proteus vulgaris A21559): 2 µg/mL; ED50 ([22]; IM, 7.8 × 10^5 organisms): 17.4 mg/kg; PD50 ([23]; IM, 9.1 × 10^5 organisms, listed as Ex. 98 (isomer A)): 0.04 mg/kg/treatment"
O=C(O)C1=CSC2CC(=O)N12 (stereo not drawn) [drawing 10],–,–,–,–,–,–,–,–,–,–,–,–,–,–,–,–,–,–,–,no β-lactamase inhibitory activity,–
"N[C@H]1C[C@@H](C2=C(C(=O)O)N3C(=O)C[C@H]3S2)C1 [Example 78, 2-(cis-3'-Aminocyclobutyl)penem-3-carboxylic Acid]",0.03,0.06,0.13,2,16,8,16,2,16,4,> 125,4,8,4,4,4,16,> 125,4,–,"MIC [21]: 4 µg/mL; ED50 ([22]; IM, 7 × 10^5 organisms): 28 mg/kg; ED50 ([23]; A9537, im, IM, 1 × 10^6 organisms): 0.63 mg/kg; ED50 ([23]; A9537, po, PO, 1 × 10^6 organisms): 2.5 mg/kg; concentration at 10 min ([25]; 10 minutes after IM 40 mg/kg): 29700 ng/mL; concentration at 20 min ([25]; 20 minutes after IM 40 mg/kg): 19300 ng/mL; concentration at 0.5 h ([25]; 30 minutes after IM 40 mg/kg): 12600 ng/mL; concentration at 0.75 h ([25]; 45 minutes after IM 40 mg/kg): 6600 ng/mL; concentration at 1 h ([25]; 60 minutes after IM 40 mg/kg): < 5000 ng/mL; concentration at 1.5 h ([25]; 90 minutes after IM 40 mg/kg): < 5000 ng/mL; concentration at 2 h ([25]; 120 minutes after IM 40 mg/kg): < 5000 ng/mL"
COC(=O)C1=C(C)OC2C(NC(c3ccccc3)(c3ccccc3)c3ccccc3)C(=O)N12 (stereo not drawn),–,–,–,–,–,–,–,–,–,–,–,–,–,–,–,–,–,–,–,weak inhibitor of β-lactamases,–
O=C(O)C1=C(CCCNO)SC2CC(=O)N12 (stereo not drawn) [Example 26],0.016,0.06,0.13,4,8,125,63,0.5,63,8,> 125,1,1,1,2,1,1,125,2,–,MIC [20]: 125 µg/mL
C[C@@H](O)[C@H]1C(=O)N2C(C(=O)O)=C(SCCN)C[C@H]12 [thienamycin],–,–,–,–,–,–,–,–,–,–,–,–,–,–,–,–,–,–,–,–,antibacterial activity [26]: highly potent broad-spectrum antibiotic
CC(=O)NC=C[S+]([O-])C1=C(C(=O)O)N2C(=O)C(C(C)OS(=O)(=O)O)C2C1 (stereo not drawn),–,–,–,–,–,–,–,–,–,–,–,–,–,–,–,–,–,–,–,β-lactamase inhibitor,antibacterial activity [26]: some antibacterial activity
"N[C@H]1C[C@H](C2=C(C(=O)O)N3C(=O)C[C@H]3S2)C1 [Example 75, 2-(trans 3-Aminocyclobutyl)-penem-3-carboxylic Acid]",0.002,0.016,0.06,0.5,63,4,4,1,8,4,> 125,1,4,2,4,4,63,125,1,–,"MIC [21]: 2 µg/mL; ED50 ([22]; IM, 6.5 × 10^5 organisms): 25 mg/kg; ED50 ([22]; PO, 6.5 × 10^5 organisms): > 50 mg/kg; ED50 ([23]; A9537, im, IM, 7.3 × 10^5 organisms): 0.4 mg/kg"
